Reference: patent US8653122B2, “Oromucosal formulation and process for preparing the same” (Santhera Pharmaceuticals (Switzerland) Ltd., priority 2002, dated 2014)

Columns and labels:
dogs [1] = assay: Dog toxicology study using buccal delivery for up to 4 weeks; type: in vivo; details: for maximum systemic concentration of fipamezole: buccal, first day
Description: (§1) Cardiac safety was studied in dogs in a 30-day dog toxicology study using oral dosing and dog toxicology studies using buccal dosing.
Maximum systemic concentrations of fipamezole after dosing on the first day of this study were about 800, 2000 and 3300 ng/ml.

[2] = Plasma levels of fipamezole in healthy male volunteers after a single 30 mg dose (oral, oromucosal tablet, oromucosal spray); type: in vivo, human; details: for AUC(0-inf) / Cmax / Tmax: human, plasma; for AUC(0-inf) / Cmax / t1/2el: mean
Description: Plasma levels of fipamezole were studied in healthy male volunteers after oral administration of the drug as a solution. Blood samples for pharmcokinetic evaluation were collected for 24 hours after the drug administration. The concentration of fipamezole in plasma was measured with HPLC-MS/MS, and the pharmacokinetic parameters were calculated. The pharmacokinetics of fipamezole was evaluated with TopFit 2.0 pharmacokinetic program. The Cmax and tmax values were read from the concentration vs. time curves, and the apparent elimination phase half-lives from the terminal part of the semilogarithmic concentration vs. time curve (see FIG. 1). AUC values were calculated both to infinity and up to the last collection time with quantifiable fipamezole concentration. Mean plasma concentration time plot following single dose administration of 30 mg fipamezole via an oral, oromucosal spray and an oromucosal tablet on a semilogarithmic scale is shown in FIG. 1.

dogs [3] = assay: Dog toxicology study, buccal spray, sequential dosing regimen (blood pressure, heart rate, ECG); type: in vivo
Description: as §1
In another toxicology study four male dogs were given fipamezole in buccal spray doses of 1, 5 and 10 mg/kg in a sequential dosing regimen with 5 to 15 days between doses. Blood pressure (systolic, diastolic and mean), heart rate and ECGs were monitored before and up to 12 hours after dosing.

dogs [4] = assay: 30-day dog toxicology study using oral dosing (cardiac safety); type: in vivo; details: for maximum systemic fipamezole concentration: oral
Description: as §1
In the 30-day dog toxicology study fipamezole was administered orally at doses of 1, 5, 10 and 15 mg/kg/day for 30 days, resulting in maximum systemic fipamezole concentrations of about 200, 1000, 2000 and 3300 ng/ml, respectively.

[5] = other: oromucosal spray, oromucosal spray
[6] = other: oromucosal tablet, oromucosal tablet
[7] = buccal spray 5 and 10 mg/kg, 30 minutes after dosing

AUC(0-inf) ([2]; oral (solution)): 0.00765 µg·h/mL | Cmax ([2]; oral (solution)): 0.00159 µg/mL | Tmax ([2]; oral (solution), median): 1 h | AUC(0-inf) [2, 5]: 0.157 µg·h/mL | Cmax [2, 5]: 0.0492 µg/mL | Tmax ([2]; other: oromucosal spray, oromucosal spray, median): 0.7 h | Tmax [2, 6]: 0.85 h | AUC(0-inf) [2, 6]: 0.116 µg·h/mL | Cmax [2, 6]: 0.0317 µg/mL | t1/2el ([2]; oral (solution)): 3.10 h | t1/2el ([2]; oromucosal spray): 2.10 h | t1/2el ([2]; oromucosal tablet): 3.10 h
SMILES: CCC1(c2c[nH]cn2)Cc2ccc(F)cc2C1.Cl (stereo not drawn) [fipamezole, 4-(2-ethyl-5-fluoroindan-2-yl)-1H-imidazole hydrochloride]
changes in ECG (dogs [1]; buccal delivery 1, 5 and 10 mg/kg/day for up to 4 weeks): no apparent changes in ECG | maximum systemic concentration of fipamezole (dogs [1]; 1 mg/kg/day): about 800 ng/ml | maximum systemic concentration of fipamezole (dogs [1]; 5 mg/kg/day): ~2000 ng/mL | maximum systemic concentration of fipamezole (dogs [1]; 10 mg/kg/day): ~3300 ng/mL | ECG changes (P wave amplitude, P wave duration, P-Q interval, QRS interval or Q-T interval) (dogs [3]; buccal spray 1, 5 and 10 mg/kg, each dose level, up to 12 hours after dosing): No ECG changes | blood pressure (absolute values) (dogs [3]; [7]): significant transient increases | heart rate (absolute values) (dogs [3]; [7]): significant transient increases | systemic concentration of fipamezole at which QT prolongation was observed (dogs [4]; high oral doses, 30-day study): about 2000 ng/ml | maximum systemic fipamezole concentration (dogs [4]; 1 mg/kg/day for 30 days): about 200 ng/ml | maximum systemic fipamezole concentration (dogs [4]; 5 mg/kg/day for 30 days): ~1000 ng/mL | maximum systemic fipamezole concentration (dogs [4]; 10 mg/kg/day for 30 days): about 2000 ng/ml | maximum systemic fipamezole concentration (dogs [4]; 15 mg/kg/day for 30 days): ~3300 ng/mL
